Series [1] concerns H1299 cells engineered to over-express E coli NfsA. The series can be described thus: Low cell density IC50 (SRB) assay, H1299 wild type versus E coli NfsA over-expressing cells. It counts as cell-based, human. Here is the method: (§1) Compounds were subjected to testing, including low-cell density cytotoxicity assay. Cells (500 cells/well) were seeded in 96-well plates and exposed to prodrug for 4 h, washed, then left to grow for a further 5 days. The SRB assay was employed to determine IC50 values (concentration of prodrug required to inhibit proliferation by 50%). Parental HCT116 cells (HCT116 is a cell line derived from human colon cancer) and cells expressing the example nitroreductase gene nfsA from Escherichia coli were evaluated head-to-head. Parental H1299 cells (H1299 is a cell line derived from lung cancer) and cells expressing the example nitroreductase gene nfsA from Escherichia coli were evaluated head-to-head. Parental HCT116 cells and cells expressing human AKR1C3 were evaluated head-to-head. Parental H1299 cells and cells expressing human AKR1C3 were evaluated head-to-head. In a variation of these assays test compounds were assessed for their ability to give hypoxia-selective cell killing. Here wild type HCT116, H460 (H460 is a cell line derived from lung cancer), H1299 and SiHa cells (SiHa is a cell line derived from cervical cancer) were used in addition to HCT116 cells engineered to over express cytochrome P450 reductase (HCT116 POR), a human one-electron nitroreductase. Low-cell density cytotoxicity assays were performed as above under oxic conditions and compared to experiments where cells were shown 4 h of anoxia during the prodrug exposure period, before being washed free of prodrug and then left to grow for a further 5 days under oxic conditions, as above.

In series [2] the test system is wild type SiHa tumour xenografts. The series can be described thus: Excision assay with and without radiation, wild type SiHa tumour xenografts. It is filed as in vivo, NIH-III nude mice. On the procedure: Tumours were grown subcutaneously in the flank of NIH-III mice by inoculating cells grown in tissue culture. Tumours were monitored using electronic calipers. When tumours reached treatment size, mice were randomized to treatment groups (five to seven per group). Compounds were given as single (or BID) intraperitoneal doses alone or 5 min after whole body irradiation (^60Co source). Eighteen hours after treatment, tumours were excised, weighed, minced, dissociated enzymatically, and plated to determine clonogenicity. Clonogens/gram of tissue were calculated relative to controls and effects of treatment were tested for significance (ANOVA with Dunnett's).

The test system of series [3] is 15% E coli NfsA-expressing H1299 xenografts. In words: Tumour growth delay, 15% E coli NfsA-expressing H1299 xenografts. Conditions: for E coli NfsA mediated anti-tumour efficacy (mean tumour volume): 500 umol/kg twice daily (BID), total 1000 umol/kg; for tumour growth delay: mixed HCT116 and H1299 xenografts, 15% E coli NfsA cells, single (or BID) intraperitoneal dose. It counts as in vivo, NIH-III mice. On the procedure: Animals weighed 18-25 g at the time of tumour inoculation. Tumours were grown subcutaneously on the right flank of mice by inoculating cells grown in tissue culture (1×10^7 cells in 100 uL serum free α-MEM). Tumour sizes were monitored three times weekly using electronic callipers and treatments were initiated once tumour diameter reached ≥7 mm.
Tumour bearing mice were randomised into the appropriate treatment groups and tumour size and body weight recorded. Test compounds were formulated on the day of the experiment and kept in foil-wrapped tubes out of direct fluorescent light. If recruitment of animals occurred over multiple days, the drug stocks were aliquoted into tubes and frozen once at […] until required. Mice were treated with a single (or BID) dose of prodrug by intraperitoneal injection and thereafter tumour size and body weight was monitored every second day. Tumour volume was calculated as π (l×w×w)/6, where l is the major axis and w is the perpendicular minor axis. Animals were culled when they had reached the appropriate survival endpoint or when body weight loss exceeded 20% of the pre-treatment value.

Series [4] has as its system HCT116 MCLs over-expressing AKR1C3. In words: Multicellular layer (MCL) clonogenic assay, HCT116 wild type versus AKR1C3 over-expressing MCLs. It is filed as cell-based, human. Here is the method: (§2) In parallel, a three dimensional high-cell density multi-cellular layer (MCL) clonogenic assay was performed. 1×10^6 cells of either 100% HCT-116^WT or containing 97% WT with a minor 3% HCT-116^NTR cell population were seeded into a collagen-coated Teflon microporous membrane and left to grow for 3 days. MCLs were then exposed to prodrug for 5 h. After treatment, MCLs were enzyme dissociated, diluted in fresh medium and plated to determine clonogenic survival. To discriminate clonogenic activator (NTR+) from target (NTR−) colonies, cells were plated in non-selective medium (total cells) and medium containing 1 μM puromycin (activator cells). Colonies were grown for 10 days before staining. Colonies containing >50 cells were counted. A variation of this assay was also used to assess for evidence of AKR1C3-dependent cytotoxicity. Here either 100% HCT-116W^T or 100% HCT-116^AKR1C3 cells were seeded to provide MCLs that were then exposed to prodrug.

The subject of series [5] is HCT116 MCLs with 3% E coli NfsA-expressing cells. The series can be described thus: MCL clonogenic bystander assay, HCT116 MCLs seeded with 3% E coli NfsA-expressing cells. It is filed as cell-based, human. Conditions: 97% wild type HCT116, 3% E coli NfsA-expressing cells. On the procedure: as §2
The test system of series [6] is HCT116 cells engineered to over-express E coli NfsA. The series can be described thus: Low cell density IC50 (SRB) assay, HCT116 wild type versus E coli NfsA over-expressing cells. It counts as cell-based, human. Here is the method:
as §1

For series [7], the system named is H1299 cells engineered to over-express human aldo-ketoreductase 1C3 (AKR1C3). The series can be described thus: Low cell density IC50 (SRB) assay, H1299 wild type versus AKR1C3 over-expressing cells. It counts as cell-based. Conditions: 4 h exposure. On the procedure: as §1
Series [8] concerns bacterial nitroreductases from the NfsA and NfsB families. In words: GFP SOS assay with nitroreductase over-expression library. It is filed as cell-based, E. coli strain SOS-R4. Conditions: single and poly mutated variants of NfsA_Ec, single-mutated variant of NfsA_Bs.
Series [9] shares this test system. The description is as above. It counts as cell-based, E. coli strain SOS-R4. The settings on record: 55 candidate nitroreductase library, 6 h challenge. An excerpt: The method employed the over-expression of a candidate nitroreductase gene from plasmid pUCX in an SOS reporter strain, as first described in Prosser et al., 2010, Biochem Pharmacol 79, 678-687. In order to enhance the sensitivity of the SOS reporter system, an sfiA::GFP reporter construct was integrated into a CDF-based plasmid (which contains a compatible origin of replication with pUCX) to give the pANODuet reporter plasmid for GFP screening. In addition, nfsA, nfsB, azoR, and nemA genes were deleted to minimise background metabolism, and the tolC gene deleted to minimise efflux of test compounds; this strain was designated SOS-R3. Further improvements were obtained by deleting the mdaB, ycaK, and yieF genes to minimise background metabolism, and by introducing transcriptional terminators to the pANODUET reporter plasmid. This final reporter strain was designated SOS-R4.
Stored glycerols of the 55-membered nitroreductase library in SOS-R4 were thawed and used to inoculate overnight cultures (Lysogeny Broth (LB) amended with 100 μg ml^−1 Ampicillin, 50 μg ml^−1 Spectinomycin, 0.4% glucose) that were incubated at 30° C., 200 rpm for 16 h. The next morning the GFP-SOS assay was commenced by inoculation of 195 μl fresh assay media (LB+100 μg ml^−1 Ampicillin, 50 μg ml^−1 Spectinomycin, 0.2% glucose, 50 μM IPTG) with 15 μl of overnight culture in individual wells of a 96-well plate. Plates were incubated at 30° C., 200 rpm for 2.5 h (pre-challenge period), following which cultures were diluted 1:2 by splitting 50:50 into fresh assay media (+DMSO to 0.5% final concentration) and fresh challenge media (assay media+drug to desired concentration, DMSO to 0.5% final concentration) to final volumes of 80 μl apiece in duplicate on a 384-well plate. Plates were incubated at 30° C., 200 rpm for 6 h (challenge period). GFP expression was determined at excitation 488 nm/emission 509 nm. Turbidity was determined by OD600 and fluorescence data from any replicates not found to be within 15% of the median culture turbidity were discarded.

For series [10], the system named is HCT116 cells engineered to over-express human aldo-ketoreductase 1C3 (AKR1C3). The series can be described thus: Low cell density IC50 (SRB) assay, HCT116 wild type versus AKR1C3 over-expressing cells. The settings on record: 4 h exposure. It is filed as cell-based. On the procedure:
as §1

Each structure is given as a SMILES string.

As to `CCN1CCN(C(=O)c2cc(N(CCBr)CCBr)c(S(C)(=O)=O)cc2[N+](=O)[O-])CC1` [compound 23, (5-(bis(2-bromoethyl)amino)-4-(methylsulfonyl)-2-nitrophenyl)(4-ethylpiperazin-1-yl)methanone], the “E coli NfsA-mediated cytotoxicity (IC50 wild type versus NfsA)” value in [1] and in series [6] was “produce E coli NfsA-mediated cytotoxicity” throughout. Further, the “cell killing in combination with radiation versus radiation alone” value in series [2] (HCT116 POR and wild type SiHa xenografts, 10 or 15Gy, single (or BID) intraperitoneal dose) was “increased cell killing above what could be achieved with radiation alone”. Besides, the “hypoxic cell kill in vivo (log cell kill)” value in [2] (with or without 10Gy radiation, 22 at 422, 300 and 11 at 1330, 23 at 1000 umol/kg) is “significant hypoxic cell kill in vivo”. The “E coli NfsA mediated anti-tumour efficacy (mean tumour volume)” value in series [3] is “display significant E coli NfsA mediated anti-tumour efficacy”. The tumour growth delay entry in [3] is “profound tumour growth delay”. Besides, the “AKR1C3-dependent clonogenic cell kill in MCLs” value in series [4] was “do not cause AKR1C3-dependant cytotoxicity”. The “bystander cell killing in MCLs” value in series [5] is recorded as “display evidence of metabolism by the 3% E coli NfsA-expressing cells with bystander cell killing of the 97% non-expressing neighbour cells”. The “AKR1C3-mediated cytotoxicity (IC50 wild type versus AKR1C3)” value in series [7] and in series [10] was “less susceptible to AKR1C3-mediated cytotoxicity than PR-104A” each time. In addition, the “activity with mutated nitroreductase variants” value in series [8] is “demonstrated”. Further, the “metabolism by bacterial nitroreductases (SOS response)” value in series [9] was “substrates for multiple wild type and mutant bacterial nitroreductases from the NfsA and NfsB families”.

With `CCS(=O)(=O)c1cc([N+](=O)[O-])c(C(=O)N2CCN(C)CC2)cc1N(CCBr)CCBr` [compound 25, (5-(bis(2-bromoethyl)amino)-4-(ethylsulfonyl)-2-nitrophenyl)(4-methylpiperazin-1-yl)methanone], the “E coli NfsA-mediated cytotoxicity (IC50 wild type versus NfsA)” value in series [1] and in series [6] was “produce E coli NfsA-mediated cytotoxicity” in each case. For the same compound, in series [4], the “AKR1C3-dependent clonogenic cell kill in MCLs” value is “do not cause AKR1C3-dependant cytotoxicity”. Besides, in series [5], the “bystander cell killing in MCLs” value is “display evidence of metabolism by the 3% E coli NfsA-expressing cells with bystander cell killing of the 97% non-expressing neighbour cells”. The “AKR1C3-mediated cytotoxicity (IC50 wild type versus AKR1C3)” value in series [7] and in series [10] was “less susceptible to AKR1C3-mediated cytotoxicity than PR-104A” each time. Also, the “activity with mutated nitroreductase variants” value in [8] is “demonstrated”. Moreover, the “metabolism by bacterial nitroreductases (SOS response)” value in [9] was “substrates for multiple wild type and mutant bacterial nitroreductases from the NfsA and NfsB families”.

Regarding `CCN1CCN(C(=O)c2cc(N(CCBr)CCBr)c(S(=O)(=O)CC)cc2[N+](=O)[O-])CC1` [compound 26, (5-(bis(2-bromoethyl)amino)-4-(ethylsulfonyl)-2-nitrophenyl)(4-ethylpiperazin-1-yl)methanone], the “E coli NfsA-mediated cytotoxicity (IC50 wild type versus NfsA)” value in series [1] and in series [6] was “produce E coli NfsA-mediated cytotoxicity” throughout. Further, the “E coli NfsA mediated anti-tumour efficacy (mean tumour volume)” value in series [3] is “display significant E coli NfsA mediated anti-tumour efficacy”. For the same compound, the tumour growth delay entry in series [3] was “profound tumour growth delay”. The “AKR1C3-dependent clonogenic cell kill in MCLs” value in series [4] is recorded as “do not cause AKR1C3-dependant cytotoxicity”. Also, the “bystander cell killing in MCLs” value in series [5] is reported as “display evidence of metabolism by the 3% E coli NfsA-expressing cells with bystander cell killing of the 97% non-expressing neighbour cells”. Besides, the “AKR1C3-mediated cytotoxicity (IC50 wild type versus AKR1C3)” value in series [7] and in series [10] was “less susceptible to AKR1C3-mediated cytotoxicity than PR-104A” each time. For the same compound, the “activity with mutated nitroreductase variants” value in [8] is on record as “demonstrated”. In addition, in series [9], the “metabolism by bacterial nitroreductases (SOS response)” value is “substrates for multiple wild type and mutant bacterial nitroreductases from the NfsA and NfsB families”.

For the compound `CCS(=O)(=O)c1cc([N+](=O)[O-])c(C(=O)N2CCN(C(C)C)CC2)cc1N(CCBr)CCBr` [compound 27, (5-(bis(2-bromoethyl)amino)-4-(ethylsulfonyl)-2-nitrophenyl)(4-isopropylpiperazin-1-yl)methanone], the “E coli NfsA-mediated cytotoxicity (IC50 wild type versus NfsA)” value in series [1] and in series [6] was “produce E coli NfsA-mediated cytotoxicity” in each case. The “AKR1C3-dependent clonogenic cell kill in MCLs” value in series [4] was “do not cause AKR1C3-dependant cytotoxicity”. In series [5], the “bystander cell killing in MCLs” value is listed as “display evidence of metabolism by the 3% E coli NfsA-expressing cells with bystander cell killing of the 97% non-expressing neighbour cells”. For the same compound, the “AKR1C3-mediated cytotoxicity (IC50 wild type versus AKR1C3)” value in [7] and in series [10] was “less susceptible to AKR1C3-mediated cytotoxicity than PR-104A” each time. For the same compound, the “activity with mutated nitroreductase variants” value in series [8] is listed as “demonstrated”. In addition, the “metabolism by bacterial nitroreductases (SOS response)” value in series [9] was “substrates for multiple wild type and mutant bacterial nitroreductases from the NfsA and NfsB families”.
